Source: patent US20240058343A1, “TREATMENT OF URTICARIA USING JAK INHIBITORS” (Incyte Corporation, priority 2022, published 2024)
Read-outs that look alike come from different tables or passages of the source.

How the values were obtained:
CSU skin = assay: Ex vivo culture of CSU lesional skin biopsies, RNA-seq gene expression; type: cell-based, human
Method: Full-thickness cutaneous skin biopsies were obtained from active disease, untreated, urticaria patients. A single 4mm-punch biopsy was obtained from the same lesion for each patient and longitudinally divided into two pieces. Biopsies were cultured for 24 hours in KBM media+CaCl2, with or without compound (i.e., Compound 1) or DMSO (control). After 24 hours, tissue RNA was isolated for subsequent analysis. RNA extracts were quantified with the Qubit fluorometer (Invitrogen) and quality assessed by TapeStation automated electrophoresis (Agilent Technologies). Total RNA (250 ng) treated with amplification-grade DNase I (Invitrogen) were enriched for non-ribosomal RNA using the NEBNext rRNA Depletion Kit v2 (New England BioLabs). Library preparation was performed with the NEBNext Ultra II Directional RNA Library Prep Kit for Illumina (New England BioLabs) following the manufactures protocol for library preparation of intact or partially degraded RNA (section 2). For comparability, the same protocol was used for all samples. RNA-seq libraries were pooled and paired-end sequencing was performed on the NextSeq 2000 (Illumina) with an average sequencing depth of 200 M reads. FASTQ files were processed with Nextflow RNASeq pipeline (v. 22.10.1). […] The effects of JAK1 inhibition with Compound 1 on DEGs identified in the prior analysis were further evaluated. […]

JAK2 (a.a. 828-1132) = JAK2 (a.a. 828-1132) (Homo sapiens (Human), UniProt O60674); assay: In vitro JAK kinase assay (HTRF), JAK2, for JAK2/JAK1 ratio; type: biochemical; conditions: IC50 ratio at 1 mM ATP
JAK2 (a.a. 828-1132), sequence (O60674 828-1132): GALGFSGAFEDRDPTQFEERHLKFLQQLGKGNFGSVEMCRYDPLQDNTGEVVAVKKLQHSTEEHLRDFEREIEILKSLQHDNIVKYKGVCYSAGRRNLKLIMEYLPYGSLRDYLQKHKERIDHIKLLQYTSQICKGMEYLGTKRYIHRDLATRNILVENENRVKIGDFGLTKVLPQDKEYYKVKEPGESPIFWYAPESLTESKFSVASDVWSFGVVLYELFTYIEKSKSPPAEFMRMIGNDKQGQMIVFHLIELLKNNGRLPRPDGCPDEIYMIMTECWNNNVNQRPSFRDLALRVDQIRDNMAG
Method: (§1) The catalytic activity of JAK1, JAK2 or JAK3 was assayed by measuring the phosphorylation of a biotinylated peptide. The phosphorylated peptide was detected by homogenous time resolved fluorescence (HTRF). IC5os of compounds are measured for each kinase in the 40 microL reactions that contain the enzyme, ATP and 500 nM peptide in 50 mM Tris (pH 7.8) buffer with 100 mM NaCl, 5 mM DTT, and 0.1 mg/mL (0.01%) BSA. […] Reactions are carried out at room temperature for 1 hour and then stopped with 20 μL 45 mM EDTA, 300 nM SA-APC, 6 nM Eu-Py20 in assay buffer (Perkin Elmer, Boston, MA). Binding to the Europium labeled antibody takes place for 40 minutes and HTRF signal was measured on a Fusion plate reader (Perkin Elmer, Boston, MA).

[1] = target: human JAK1 (a.a. 837-1142) (Homo sapiens, UniProt P23458); assay: In vitro JAK kinase assay (HTRF), JAK1; type: biochemical; conditions: 1 mM ATP
Method: as §1

IgE = conditions: CSU patients, after 12 weeks, with second-generation H1 antihistamine, cited from earlier work

Compound	PTX3 expression (CSU skin; CSU skin, 24 hour ex vivo treatment, FIG. 1)	CCL2, S100A8, SELE and PTX3 expression (CSU skin; cultured CSU skin, 24 hours, vs DMSO control)	JAK2/JAK1 (JAK2 (a.a. 828-1132))	IC50 [1] [nM]	patients achieving a complete response (IgE)	patients achieving a complete response (IgE; listed as omalizumab) [%]
N#CCC1(n2cc(-c3ncnc4[nH]ccc34)cn2)CN(C2CCN(C(=O)c3ccnc(C(F)(F)F)c3F)CC2)C1 [compound 1, {1-{1-[3-Fluoro-2-(trifluoromethyl)isonico-tinoyl]piperidin-4-yl}-3-[4-(7H-pyrrolo[2,3-d]pyrimidin-4-yl)-1H-pyrazol-1-yl]azetidin-3-yl}acetonitrile]	dramatically reduced	altered expression	>10	< 10	–	–
Omalizumab: an anti-IgE monoclonal antibody (administered subcutaneously)	–	–	–	–	approximately 35%	~35
N#CCC1(n2cc(-c3ncnc4[nH]ccc34)cn2)CN([C@H]2CC[C@@H](Oc3cc(CN4CC[C@H](O)C4)cc(C(F)(F)F)n3)CC2)C1 [compound 22, {1-(cis-4-{[4-{[(3S)-3-hydroxypyrrolidin-1-yl]methyl}-6-(trifluoromethyl)pyridin-2-yl]oxy}cyclohexyl)-3-[4-(7H-pyrrolo[2,3-d]pyrimidin-4-yl)-1H-pyrazol-1-yl]azetidin-3-yl}acetonitrile]	–	–	>10	< 10	–	–
N#CCC(CN1CCN(C(=O)c2ccc(C#N)cc2F)CC1)n1cc(-c2ncnc3[nH]ccc23)cn1 (centres unmarked) [compound 8, 4-[(4-{3-cyano-2-[4-(7H-pyrrolo[2,3-d]pyrimidin-4-yl)-1H-pyrazol-1-yl]propyl}piperazin-1-yl)carbanoyl]-3-fluorobenzonitrile]	–	–	>10	< 10	–	–
N#CC[C@]1(n2cc(-c3ncnc4[nH]ccc34)cn2)C[C@H](N2CCC(Oc3cc(CN4CCC[C@@H]4CO)cc(C(F)(F)F)n3)CC2)C1 [compound 13, {trans-3-(4-{[4-{[(2R)-2-(hydroxymethyl)pyrroli-din-1-yl]methyl}-6-(trifluoromethyl)pyridin-2-yl]oxy}piperidin-1-yl)-1-[4-(7H-pyrrolo[2,3-d]pyrimidin-4-yl)-1H-pyrazol-1-yl]cyclobutyl}acetonitrile]	–	–	>10	< 10	–	–
CCNCc1cc(O[C@H]2CC[C@@H](N3CC(CC#N)(n4cc(-c5ncnc6[nH]ccc56)cn4)C3)CC2)nc(C(F)(F)F)c1 [compound 19, {1-(cis-4-{[4-[(ethylamino)methyl]-6-(trifluoromethyl)pyridin-2-yl]oxy}cyclohexyl)-3-[4-(7H-pyrrolo[2,3-d]pyrimidin-4-yl)-1H-pyrazol-1-yl]azetidin-3-yl}acetonitrile]	–	–	>10	< 10	–	–
